Source: ChEMBL document CHEMBL6092135, “Current development and structure-activity relationship study of berberine derivatives” (Bioorg Med Chem, 2024)

Tests used:
Candida albicans [1] = experiment: Antifungal activity against Candida albicans ATCC 10231 assessed as reduction in fungal growth by NCCLS method; format: functional
Cryptococcus neoformans = experiment: Antifungal activity against Cryptococcus neoformans assessed as fungal growth inhibition by CLSI based method; format: functional
Aspergillus niger = experiment: Antifungal activity against Aspergillus niger assessed as inhibition of fungal growth incubated for 48 hrs by CLSI protocol based analysis; format: functional
[2] = test system: Lewis lung carcinoma cell line; experiment: Cytotoxicity against mouse Lewis lung carcinoma cell line; format: functional, cell-based
SMMC-7721 = experiment: Antiproliferative activity against human SMMC-7721 cells assessed as reduction in cell growth; format: functional, cell-based
CEM-VCR = experiment: Antiproliferative activity against human CEM-VCR cells assessed as reduction in cell growth; format: functional, cell-based
HepG2 [3] = experiment: Antiproliferative activity against human HepG2 cells assessed as reduction in cell growth; format: functional, cell-based
[4] = Antiproliferative activity against human QGY-7701 cells assessed as reduction in cell growth; format: functional, cell-based; settings: QGY7701
HCT-116 = experiment: Cytotoxicity against human HCT-116 cells assessed as reduction in cell viability incubated for 24 hrs by MTT assay; format: functional, cell-based; settings: HCT-116, 24 h
C6 = experiment: Antiproliferative activity against rat C6 cells assessed as inhibition of cell growth incubated for 72 hrs by Sulforhodamine B assay; format: functional, cell-based; settings: C6, 72 h
HT-29 = experiment: Antiproliferative activity against human HT-29 cells assessed as reduction in cell viability incubated for 24 hrs by MTT assay; format: functional, cell-based; settings: HT-29, 24 h
HepG2 [5] = experiment: Cytotoxicity against human HepG2 cells assessed as reduction in cell viability by MTT assay; format: functional, cell-based
BFTC-905 = experiment: Antiproliferative activity against human BFTC-905 cells assessed as reduction in cell viability; format: functional, cell-based
Candida albicans [6] = experiment: Antifungal activity against Candida albicans assessed as reduction in fungal growth incubated for 12 hrs by microdilution method; format: functional
Ca-Ski = experiment: Cytotoxicity against human Ca-Ski cells assessed as reduction in cell viability measured after 48 hrs by SRB assay; format: functional, cell-based
HeLa [7] = experiment: Cytotoxicity against human HeLa cells assessed as reduction in cell viability measured after 48 hrs by SRB assay; format: functional, cell-based
[8] = Antioxidant activity assessed as DPPH radical scavenging activity measured for 30 mins by spectrophotometric analysis; format: functional
Listeria monocytogenes = experiment: Antibacterial activity against Listeria monocytogenes ATCC 19111 assessed as reduction in bacterial growth incubated for 20 to 24 hrs by microbroth serial dilution assay; format: functional; settings: time 20-24 hrs
Salmonella typhimurium = experiment: Antimicrobial activity against Salmonella enterica subsp. enterica serovar Typhimurium LT2 assessed as inhibition of bacterial growth measured for 24 hrs by broth micro-dilution method; format: functional
Plasmodium falciparum = experiment: Antiplasmodial activity against Plasmodium falciparum 3D7 assessed as inhibition of parasite growth measured for 42 hrs by SYBR Green staining based fluorescence analysis; format: functional, organism-based; settings: 3D7, 42 h
A549 [9] = experiment: Antiproliferative activity against human A549 cells assessed as reduction in cell viability incubated for 24 hrs by CCK-8 assay; format: functional, cell-based; settings: A549, 24 h
A549 [10] = experiment: Anticancer activity against human A549 cells; format: functional, cell-based
HeLa [11] = experiment: Anticancer activity against human HeLa cells; format: functional, cell-based
DNA topoisomerase 1 = DNA topoisomerase 1 (Homo sapiens, UniProt P11387); experiment: Inhibition of Topoisomerase 1 (unknown origin)
Chain of DNA topoisomerase 1 (P11387 whole entry): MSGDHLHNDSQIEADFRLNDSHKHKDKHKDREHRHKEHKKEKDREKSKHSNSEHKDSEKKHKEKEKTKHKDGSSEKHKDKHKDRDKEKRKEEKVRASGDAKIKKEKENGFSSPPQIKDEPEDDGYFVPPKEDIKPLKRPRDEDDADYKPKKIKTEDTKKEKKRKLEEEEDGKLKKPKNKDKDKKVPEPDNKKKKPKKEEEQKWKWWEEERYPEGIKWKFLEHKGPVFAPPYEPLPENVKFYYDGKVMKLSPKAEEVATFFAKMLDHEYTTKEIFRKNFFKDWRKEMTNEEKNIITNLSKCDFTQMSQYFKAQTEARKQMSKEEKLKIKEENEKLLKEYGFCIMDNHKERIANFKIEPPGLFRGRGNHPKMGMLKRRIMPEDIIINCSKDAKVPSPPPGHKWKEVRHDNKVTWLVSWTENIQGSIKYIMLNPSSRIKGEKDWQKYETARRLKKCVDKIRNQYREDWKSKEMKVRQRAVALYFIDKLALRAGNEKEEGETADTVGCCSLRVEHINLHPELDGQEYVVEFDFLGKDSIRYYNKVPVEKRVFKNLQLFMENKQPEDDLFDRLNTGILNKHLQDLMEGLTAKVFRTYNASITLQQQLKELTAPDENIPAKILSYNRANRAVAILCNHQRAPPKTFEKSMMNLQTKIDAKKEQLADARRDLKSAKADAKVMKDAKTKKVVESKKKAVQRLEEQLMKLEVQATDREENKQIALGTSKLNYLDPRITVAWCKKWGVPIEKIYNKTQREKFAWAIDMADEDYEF

Escherichia coli = experiment: Antibacterial activity against Escherichia coli ATCC 25922 assessed as bacterial growth inhibition measured after 48 hrs by resazurin assay; format: functional
Enterovirus A71 = experiment: Antiviral activity against human EV71 infected in human RD cells assessed as inhibition of cytopathic effect by microscopy based analysis; format: functional, organism-based; settings: Enterovirus A
CCRF-CEM = experiment: Antiproliferative activity against human CEM cells assessed as reduction in cell viability measured after 3 to 4 days by MTT assay; format: functional, cell-based
[12] = test system: Mycobacterium tuberculosis; experiment: Antimycobacterial activity against Mycobacterium tuberculosis H37Rv assessed as reduction in bacterial growth incubated for 7 days by resazurin based assay; format: functional; settings: 168 h, time 7 day
Coxsackievirus B3 = experiment: Antiviral activity against Coxsackievirus B3 infected in human HEp-2 cells assessed as inhibition of virus-induced cytopathic effect measured after 48 hrs by MTT assay; format: functional, organism-based; settings: Enterovirus B, HEp-2, 48 h
Enterococcus faecalis = experiment: Antibacterial activity against Enterococcus faecalis ATCC 29212 assessed as reduction in microbial growth after 16 hrs by broth microdilution method; format: functional
Enterococcus faecium = experiment: Antibacterial activity against Enterococcus faecium ATCC 19434 assessed as reduction in microbial growth measured after 24 hrs by two-fold serial dilution method; format: functional
Bacillus anthracis = experiment: Antibacterial activity against Bacillus anthracis; format: functional
Bacillus cereus = experiment: Antibacterial activity against Bacillus cereus ATCC 27348 assessed as inhibition of bacterial growth incubated for 18 hrs by microdilution method; format: functional
Staphylococcus aureus [13] = experiment: Antibacterial activity against Staphylococcus aureus ATCC 25923 assessed as reduction in bacterial growth incubated for 24 hrs by serial dilution method; format: functional
Staphylococcus aureus [14] = experiment: Antibacterial activity against Staphylococcus aureus ATCC 25923 assessed as reduction in microbial growth measured after 24 hrs by spectrophotometric method; format: functional

Compound: COc1ccc2c(Cc3ccc(C(C)(C)C)cc3)c3[n+](cc2c1OC)CCc1cc2c(cc1-3)OCO2
- MIC (Candida albicans [1]): 1.56 µg/mL

Compound: CCCCOc1c(OC)ccc2c(Cc3ccc(C(C)C)cc3)c3[n+](cc12)CCc1cc2c(cc1-3)OCO2.[Cl-]
- MIC (Cryptococcus neoformans): 0.25 µg/mL
- MIC (Aspergillus niger): 0.25 µg/mL

Compound: CCCCCCCCc1c2[n+](cc3c(OC)c(OC)ccc13)CCc1cc3c(cc1-2)OCO3
- IC50 [2]: 0.02 µM
- IC50 (SMMC-7721): 0.02 µM
- IC50 (CEM-VCR): 0.02 µM
- IC50 (HepG2 [3]): 0.02 µM
- IC50 [4]: 0.02 µM

Compound: COc1ccc2c(c[n+]3c4c2ccc2c5c(cc(c24)CC3)OCO5)c1OC(=O)c1ccccc1
- IC50 (HCT-116): 0.47 µM

Compound: CCCCCCCCCCCCc1c2[n+](cc3c(OC)c(OC)ccc13)CCc1cc3c(cc1-2)OCO3
- IC50 (C6): 0.77 µM
- IC50 (HT-29): 0.77 µM
- IC50 (HepG2 [5]): 0.77 µM
- IC50 (BFTC-905): 0.77 µM

Compound: COc1ccc2c(Cc3ccc(C(C)C)cc3)c3[n+](cc2c1O)CCc1cc2c(cc1-3)OCO2.[Cl-]
- MIC (Candida albicans [6]): 1 µg/mL

Compound: COc1cc(CN2CCN(c3ccc(C)cc3C)CC2)c2cc3[n+](cc2c1O)CCc1cc2c(cc1-3)OCO2
- IC50 (Ca-Ski): 5.75 µM
- IC50 (HeLa [7]): 7.33 µM
- IC50 [8]: 19.8 µM

Compound: COc1cc(CN2CCN(C(c3ccccc3)c3ccccc3)CC2)c2cc3[n+](cc2c1O)CCc1cc2c(cc1-3)OCO2.[Cl-]
- MIC (Listeria monocytogenes): 200 µg/mL

Compound: COc1cc(CN2CCN(c3ccc(F)cc3F)CC2)c2cc3[n+](cc2c1O)CCc1cc2c(cc1-3)OCO2
- IC50 (Ca-Ski): 5.75 µM
- IC50 (HeLa [7]): 7.33 µM
- IC50 [8]: 19.8 µM

Compound: COc1cc(CN2CCN(c3ccccc3Cl)CC2)c2cc3[n+](cc2c1O)CCc1cc2c(cc1-3)OCO2.[Cl-]
- MIC (Listeria monocytogenes): 200 µg/mL

Compound: COc1ccc(N2CCN(Cc3cc(OC)c(O)c4c[n+]5c(cc34)-c3cc4c(cc3CC5)OCO4)CC2)c(OC)c1
- IC50 (Ca-Ski): 5.75 µM
- IC50 (HeLa [7]): 7.33 µM
- IC50 [8]: 19.8 µM

Compound: COc1cc(CN2CCN(c3cccc(Cl)c3Cl)CC2)c2cc3[n+](cc2c1O)CCc1cc2c(cc1-3)OCO2
- IC50 (Ca-Ski): 5.75 µM
- IC50 (HeLa [7]): 7.33 µM
- IC50 [8]: 19.8 µM

Compound: COc1cc(CN2CCN(c3ccc(Cl)c(Cl)c3)CC2)c2cc3[n+](cc2c1O)CCc1cc2c(cc1-3)OCO2
- IC50 (Ca-Ski): 5.75 µM
- IC50 (HeLa [7]): 7.33 µM
- IC50 [8]: 19.8 µM

Compound: COc1cc(Cn2ccnc2)c2cc3[n+](cc2c1O)CCc1cc2c(cc1-3)OCO2.[Cl-]
- MIC (Salmonella typhimurium): 1 µg/mL

Compound: COc1cc(CN2CCN(c3cccc(C)c3C)CC2)c2cc3[n+](cc2c1O)CCc1cc2c(cc1-3)OCO2
- IC50 (Ca-Ski): 5.75 µM
- IC50 (HeLa [7]): 7.33 µM
- IC50 [8]: 19.8 µM

Compound: COc1cc(CN2CCN(c3cccc(F)c3F)CC2)c2cc3[n+](cc2c1O)CCc1cc2c(cc1-3)OCO2
- IC50 (Ca-Ski): 5.75 µM
- IC50 (HeLa [7]): 7.33 µM
- IC50 [8]: 19.8 µM

Compound: COc1cc(CN2CCN(c3ccc(Cl)cc3Cl)CC2)c2cc3[n+](cc2c1O)CCc1cc2c(cc1-3)OCO2
- IC50 (Ca-Ski): 5.75 µM
- IC50 (HeLa [7]): 7.33 µM
- IC50 [8]: 19.8 µM

Compound: COc1ccc2cc3[n+](cc2c1OCc1cn(-c2ccc(S(=O)(=O)N4CCOCC4)cc2)nn1)CCc1cc2c(cc1-3)OCO2.[Cl-]
- IC50 (Plasmodium falciparum): 0.2 µg/mL

Compound: COc1ccc2cc3[n+](cc2c1OCc1cn(-c2ccc(S(=O)(=O)Nc4ccc(F)cc4)cc2)nn1)CCc1cc2c(cc1-3)OCO2.[Cl-]
- IC50 (Plasmodium falciparum): 0.2 µg/mL

Compound: COc1ccc2cc3[n+](cc2c1OCc1cn(-c2ccc(S(=O)(=O)Nc4ccc(Cl)cc4)cc2)nn1)CCc1cc2c(cc1-3)OCO2.[Cl-]
- IC50 (Plasmodium falciparum): 0.2 µg/mL

Compound: COc1ccc2cc3[n+](cc2c1OCc1cn(-c2ccc(S(N)(=O)=O)cc2)nn1)CCc1cc2c(cc1-3)OCO2.[Cl-]
- IC50 (Plasmodium falciparum): 0.2 µg/mL

Compound: CCCCCCN(CCCCCC)c1cc(OC)c(O)c2c[n+]3c(cc12)-c1cc2c(cc1CC3)OCO2
- IC50 (A549 [9]): 0.29 µM

Compound: COc1ccc2cc3[n+](cc2c1OCCn1cccn1)CCc1cc2c(cc1-3)OCO2
- IC50 (A549 [10]): 8.99 µM
- IC50 (HeLa [11]): 8.99 µM

Compound: COc1ccc2c(c1OS(=O)(=O)c1c(F)c(F)cc(F)c1F)CN1CCc3cc4c(cc3C1C2)OCO4 (stereo unspecified)
- IC50 (DNA topoisomerase 1): 1.05 µM

Compound: COc1ccc2c(c1NS(=O)(=O)c1ccc(Cl)cc1)C[N+]1(S(=O)(=O)c3ccc(Cl)cc3)CCc3cc4c(cc3C1C2)OCO4 (stereo unspecified)
- MIC (Escherichia coli): 0.5 µg/mL

Compound: COc1ccc2cc3[n+](cc2c1OCCn1nc(C)c(Cl)c1C)CCc1cc2c(cc1-3)OCO2
- IC50 (A549 [10]): 8.99 µM
- IC50 (HeLa [11]): 8.99 µM

Compound: COc1ccc2cc3[n+](cc2c1OCC(=O)OCc1ccccc1)CCc1cc2c(cc1-3)OCO2
- IC50 (Enterovirus A71): 7.12 µM

Compound: COc1ccc2c(CCCc3ccccc3)c3[n+](cc2c1OC)CCc1cc2c(cc1-3)OCO2
- IC50 (CCRF-CEM): 0.21 µM

Compound: COc1ccc2cc3[n+](cc2c1OCCn1nc(C)cc1C)CCc1cc2c(cc1-3)OCO2
- IC50 (A549 [10]): 8.99 µM
- IC50 (HeLa [11]): 8.99 µM

Compound: COc1ccc2cc3[n+](cc2c1OCCn1nc(C)c(Br)c1C)CCc1cc2c(cc1-3)OCO2
- IC50 (A549 [10]): 8.99 µM
- IC50 (HeLa [11]): 8.99 µM

Compound: CCCCCCC1c2cc(OC)c(OC)cc2C=C2c3cc4c(cc3CCN21)OCO4.Cl (stereo unspecified)
- MIC [12]: 1 µg/mL

Compound: COc1ccc2cc3[n+](cc2c1)CCc1cc(OCCOCCN)c(OC)cc1-3
- IC50 (Coxsackievirus B3): 3.08 µM

Compound: COc1cc2c(cc1OC)C(c1ccccc1)N1CCc3cc4c(cc3C1=C2)OCO4.Cl (stereo unspecified)
- MIC [12]: 1 µg/mL

Compound: CCCCCOC(=O)COc1c(OC)ccc2cc3[n+](cc12)CCc1cc2c(cc1-3)OCO2
- IC50 (Enterovirus A71): 7.12 µM

Compound: CCOC(=O)COc1c(OC)ccc2cc3[n+](cc12)CCc1cc2c(cc1-3)OCO2
- IC50 (Enterovirus A71): 7.12 µM

Compound: Br.COc1ccc2c(Cc3ccccc3-c3cc4cc([N+](=O)[O-])ccc4[nH]3)c3[n+](cc2c1OC)CCc1cc2c(cc1-3)OCO2
- MIC (Enterococcus faecalis): 3.12 µg/mL
- MIC (Enterococcus faecium): 3.12 µg/mL
- MIC (Bacillus anthracis): 3.12 µg/mL
- MIC (Bacillus cereus): 3.12 µg/mL
- MIC (Staphylococcus aureus [13]): 3.12 µg/mL

Compound: CCCOc1c(OC)cc(/C=C2\SC(=O)NC2=O)c2c1CN1CCc3cc4c(cc3C1C2)OCO4 (stereo unspecified)
- MIC (Staphylococcus aureus [14]): 0.008 µg/mL

Compound: O=C1O[C@H]([C@@H](O)CO)C(O)=C1O [ASCORBIC ACID]
- IC50 [8]: 61 µM

Compound: COc1ccc2cc3[n+](cc2c1OC)CCc1cc2c(cc1-3)OCO2 [BERBERINE]
- IC50 (Ca-Ski): 15.2 µM
- IC50 (HeLa [7]): 13.4 µM
- IC50 [8]: 89.2 µM
- MIC (Staphylococcus aureus [14]): 0.698 µg/mL

Compound: N=C(N)c1ccc(-c2ccc(-c3ccc(C(=N)N)cc3)o2)cc1 [FURAMIDINE]
- IC50 (DNA topoisomerase 1): 1.2 µM

Compound: CCn1cc(C(=O)O)c(=O)c2cc(F)c(N3CCNCC3)cc21 [NORFLOXACIN]
- MIC (Staphylococcus aureus [14]): 0.025 µg/mL
